Source: patent publication US9611249B2, “1H-indazole-3-carboxamide compounds as glycogen synthase kinase 3 beta inhibitors” (AZIENDE CHIMICHE RIUNITE ANGELINI FRANCESCO A.C.R.A.F. …, priority 2012, dated 2017)

Columns and labels:
IKKalpha (h) = IKKalpha (h) (Homo sapiens (Human), UniProt O15111); experiment: Kinase selectivity panel: IKKalpha (h); assay type: biochemical; conditions: 10 μM in duplicate, read-out: % inhibition of control values
Method: (§1) (a) Compounds 1 and 2 were tested against a panel of 60 kinases in order to assess their selectivity. The assays were chosen taking into consideration the diversity of assay families.
(§2) Tested kinases were representative of following kinase sub-families: • protein-serine/threonine kinases; • protein-tyrosine kinases; • other kinases; and • atypical kinases.
(§3) Human recombinant kinases were incubated in the presence of specific peptide substrates plus ATP for different times (10, 15, 30, 60 or 90 minutes) at 22° C. Phosphorylated substrate was detected by LANCE or HTRF technology (CISBIO, MA, USA). The compounds were tested at 10 μM in duplicate.
(§4) The results are expressed as a percentage of inhibition of control specific activity obtained in the presence of the test compounds and are reported in the following Table 5.
(§5) (b) Compounds 3, 8, 29 and 31 were tested against the same panel of 60 kinases under the same conditions described above for compounds 1 and 2.
(§6) The results are expressed as a percent of inhibition of control specific activity obtained in the presence of the test compounds and are reported in the following Table 6.

Abl kinase (h) = Abl kinase (h) (Homo sapiens (Human), UniProt P00519); experiment: Kinase selectivity panel: Abl kinase (h); assay type: biochemical; conditions: 10 μM in duplicate, read-out: % inhibition of control values
Method: as §1, §2, §3, §4, §5, §6

p38gamma kinase (h) = p38gamma kinase (h) (Homo sapiens (Human), UniProt P53778); experiment: Kinase selectivity panel: p38gamma kinase (h); assay type: biochemical; conditions: 10 μM in duplicate, read-out: % inhibition of control values
p38gamma kinase (h), sequence (P53778 whole entry): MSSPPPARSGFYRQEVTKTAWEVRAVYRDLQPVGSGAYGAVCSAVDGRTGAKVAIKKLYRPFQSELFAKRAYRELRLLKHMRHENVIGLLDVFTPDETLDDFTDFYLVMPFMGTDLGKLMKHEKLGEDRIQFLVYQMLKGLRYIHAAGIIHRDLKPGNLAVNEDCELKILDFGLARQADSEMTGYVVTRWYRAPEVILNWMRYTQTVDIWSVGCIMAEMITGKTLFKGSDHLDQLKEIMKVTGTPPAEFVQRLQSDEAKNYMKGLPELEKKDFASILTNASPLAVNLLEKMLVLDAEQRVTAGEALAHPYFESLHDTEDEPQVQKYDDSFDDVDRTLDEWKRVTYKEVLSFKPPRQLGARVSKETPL
Method: as §1, §2, §3, §4, §5, §6

PDK1 (h) = PDK1 (h) (Homo sapiens (Human), UniProt O15530); experiment: Kinase selectivity panel: PDK1 (h); assay type: biochemical; conditions: 10 μM in duplicate, read-out: % inhibition of control values
Method: as §1, §2, §3, §4, §5, §6

CDK2 (h) (cycA) = CDK2 (h) (cycA) (Homo sapiens (Human), UniProt P24941); experiment: Kinase selectivity panel: CDK2 (h) (cycA); assay type: biochemical; conditions: 10 μM in duplicate, read-out: % inhibition of control values
Method: as §1, §2, §3, §4, §5, §6

mTOR kinase (h) (FRAP1) = mTOR kinase (h) (FRAP1) (Homo sapiens (Human), UniProt P42345); experiment: Kinase selectivity panel: mTOR kinase (h) (FRAP1); assay type: biochemical; conditions: 10 μM in duplicate, read-out: % inhibition of control values
Method: as §1, §2, §3, §4, §5, §6

Pim1 kinase (h) = Pim1 kinase (h) (Homo sapiens (Human), UniProt P11309); experiment: Kinase selectivity panel: Pim1 kinase (h); assay type: biochemical; conditions: 10 μM in duplicate, read-out: % inhibition of control values
Pim1 kinase (h), sequence (P11309 whole entry): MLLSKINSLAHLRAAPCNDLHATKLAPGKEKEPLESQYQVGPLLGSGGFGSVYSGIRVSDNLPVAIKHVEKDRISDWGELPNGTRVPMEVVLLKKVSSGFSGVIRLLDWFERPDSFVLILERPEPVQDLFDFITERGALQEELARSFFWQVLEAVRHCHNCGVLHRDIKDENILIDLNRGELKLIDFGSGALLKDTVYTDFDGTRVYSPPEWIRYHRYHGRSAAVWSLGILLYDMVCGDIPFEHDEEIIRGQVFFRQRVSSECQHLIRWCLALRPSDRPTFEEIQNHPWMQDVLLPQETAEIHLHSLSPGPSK
Method: as §1, §2, §3, §4, §5, §6

MEK1/MAP2K1 (h) = MEK1/MAP2K1 (h) (Homo sapiens (Human), UniProt Q02750); experiment: Kinase selectivity panel: MEK1/MAP2K1 (h); assay type: biochemical; conditions: 10 μM in duplicate, read-out: % inhibition of control values
Method: as §1, §2, §3, §4, §5, §6

FGFR1 kinase (h) = FGFR1 kinase (h) (Homo sapiens (Human), UniProt P11362); experiment: Kinase selectivity panel: FGFR1 kinase (h); assay type: biochemical; conditions: 10 μM in duplicate, read-out: % inhibition of control values
Method: as §1, §2, §3, §4, §5, §6

AMPKalpha = experiment: Kinase selectivity panel: AMPKalpha; assay type: biochemical, human; conditions: 10 μM in duplicate
Method: as §1, §2, §3, §4, §5, §6

PKA (h) = PKA (h) (Homo sapiens (Human), UniProt P17612); experiment: Kinase selectivity panel: PKA (h); assay type: biochemical; conditions: 10 μM in duplicate, read-out: % inhibition of control values
Method: as §1, §2, §3, §4, §5, §6

PAK1 (h) = PAK1 (h) (Homo sapiens (Human), UniProt Q13153); experiment: Kinase selectivity panel: PAK1 (h); assay type: biochemical; conditions: 10 μM in duplicate, read-out: % inhibition of control values
Method: as §1, §2, §3, §4, §5, §6

MNK2 (h) = MNK2 (h) (Homo sapiens (Human), UniProt Q9HBH9); experiment: Kinase selectivity panel: MNK2 (h); assay type: biochemical; conditions: 10 μM in duplicate, read-out: % inhibition of control values
MNK2 (h), sequence (Q9HBH9 whole entry): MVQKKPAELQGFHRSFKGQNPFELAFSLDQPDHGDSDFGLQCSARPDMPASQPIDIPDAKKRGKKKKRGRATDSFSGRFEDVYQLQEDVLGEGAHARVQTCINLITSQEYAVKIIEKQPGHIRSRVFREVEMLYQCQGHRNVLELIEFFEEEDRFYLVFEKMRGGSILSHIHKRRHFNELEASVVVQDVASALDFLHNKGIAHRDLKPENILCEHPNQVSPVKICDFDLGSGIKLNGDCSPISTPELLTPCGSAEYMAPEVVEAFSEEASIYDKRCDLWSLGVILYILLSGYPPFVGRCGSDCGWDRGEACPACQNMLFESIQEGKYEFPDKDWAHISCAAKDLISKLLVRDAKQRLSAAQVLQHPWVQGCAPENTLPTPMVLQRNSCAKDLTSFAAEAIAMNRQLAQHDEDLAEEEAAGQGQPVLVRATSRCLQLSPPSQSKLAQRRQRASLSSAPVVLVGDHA
Method: as §1, §2, §3, §4, §5, §6

GRK3/BARK2 (h) (ADRBK2) = GRK3/BARK2 (h) (ADRBK2) (Homo sapiens (Human), UniProt P35626); experiment: Kinase selectivity panel: GRK3/BARK2 (h) (ADRBK2); assay type: biochemical; conditions: 10 μM in duplicate, read-out: % inhibition of control values
GRK3/BARK2 (h) (ADRBK2), sequence (P35626 whole entry): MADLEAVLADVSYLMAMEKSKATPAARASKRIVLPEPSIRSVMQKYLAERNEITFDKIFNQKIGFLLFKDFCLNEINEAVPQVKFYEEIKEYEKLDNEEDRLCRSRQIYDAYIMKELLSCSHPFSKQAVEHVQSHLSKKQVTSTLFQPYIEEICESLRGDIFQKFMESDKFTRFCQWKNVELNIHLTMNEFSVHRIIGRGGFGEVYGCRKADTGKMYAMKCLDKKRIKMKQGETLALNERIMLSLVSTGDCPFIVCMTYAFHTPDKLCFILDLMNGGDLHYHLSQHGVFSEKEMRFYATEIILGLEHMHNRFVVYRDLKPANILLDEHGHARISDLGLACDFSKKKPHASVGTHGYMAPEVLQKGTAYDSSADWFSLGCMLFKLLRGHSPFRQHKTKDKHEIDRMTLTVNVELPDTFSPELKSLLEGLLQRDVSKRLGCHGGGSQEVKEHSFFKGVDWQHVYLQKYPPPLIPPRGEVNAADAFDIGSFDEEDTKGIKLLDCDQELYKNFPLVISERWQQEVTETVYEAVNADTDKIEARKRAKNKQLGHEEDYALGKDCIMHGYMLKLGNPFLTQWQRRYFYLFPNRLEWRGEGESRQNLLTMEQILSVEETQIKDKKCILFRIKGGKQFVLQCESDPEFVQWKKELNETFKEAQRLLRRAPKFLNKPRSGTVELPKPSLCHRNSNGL
Method: as §1, §2, §3, §4, §5, §6

smMLCK (h) (MYLK) = smMLCK (h) (MYLK) (Homo sapiens (Human), UniProt Q15746); experiment: Kinase selectivity panel: smMLCK (h) (MYLK); assay type: biochemical; conditions: 10 μM in duplicate, read-out: % inhibition of control values
Method: as §1, §2, §3, §4, §5, §6

AurB/Aur1 kinase (h) = AurB/Aur1 kinase (h) (Homo sapiens (Human), UniProt Q96GD4); experiment: Kinase selectivity panel: AurB/Aur1 kinase (h); assay type: biochemical; conditions: 10 μM in duplicate, read-out: % inhibition of control values
AurB/Aur1 kinase (h), sequence (Q96GD4 whole entry): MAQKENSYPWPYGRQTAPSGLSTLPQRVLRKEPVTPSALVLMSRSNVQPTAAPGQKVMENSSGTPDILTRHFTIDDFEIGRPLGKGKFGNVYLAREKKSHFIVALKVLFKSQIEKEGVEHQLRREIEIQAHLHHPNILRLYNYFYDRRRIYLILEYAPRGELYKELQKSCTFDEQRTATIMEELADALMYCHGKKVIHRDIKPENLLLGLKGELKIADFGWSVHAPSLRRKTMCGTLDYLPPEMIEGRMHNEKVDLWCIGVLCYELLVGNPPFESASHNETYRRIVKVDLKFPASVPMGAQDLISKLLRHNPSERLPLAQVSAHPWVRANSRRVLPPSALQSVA
Method: as §1, §2, §3, §4, §5, §6

IRAK4 (h) = IRAK4 (h) (Homo sapiens (Human), UniProt Q9NWZ3); experiment: Kinase selectivity panel: IRAK4 (h); assay type: biochemical; conditions: 10 μM in duplicate, read-out: % inhibition of control values
Method: as §1, §2, §3, §4, §5, §6

AurA/Aur2 kinase (h) = AurA/Aur2 kinase (h) (Homo sapiens (Human), UniProt O14965); experiment: Kinase selectivity panel: AurA/Aur2 kinase (h); assay type: biochemical; conditions: 10 μM in duplicate, read-out: % inhibition of control values
Method: as §1, §2, §3, §4, §5, §6

MSK1 (h) = MSK1 (h) (Homo sapiens (Human), UniProt O75582); experiment: Kinase selectivity panel: MSK1 (h); assay type: biochemical; conditions: 10 μM in duplicate, read-out: % inhibition of control values
Method: as §1, §2, §3, §4, §5, §6

Akt1/PKBalpha (h) = Akt1/PKBalpha (h) (Homo sapiens (Human), UniProt P31749); experiment: Kinase selectivity panel: Akt1/PKBalpha (h); assay type: biochemical; conditions: 10 μM in duplicate, read-out: % inhibition of control values
Method: as §1, §2, §3, §4, §5, §6

JAK2 (h) = JAK2 (h) (Homo sapiens (Human), UniProt O60674); experiment: Kinase selectivity panel: JAK2 (h); assay type: biochemical; conditions: 10 μM in duplicate, read-out: % inhibition of control values
Method: as §1, §2, §3, §4, §5, §6

PKCgamma (h) = PKCgamma (h) (Homo sapiens (Human), UniProt P05129); experiment: Kinase selectivity panel: PKCgamma (h); assay type: biochemical; conditions: 10 μM in duplicate, read-out: % inhibition of control values
Method: as §1, §2, §3, §4, §5, §6

p38alpha kinase (h) = p38alpha kinase (h) (Homo sapiens (Human), UniProt Q16539); experiment: Kinase selectivity panel: p38alpha kinase (h); assay type: biochemical; conditions: 10 μM in duplicate, read-out: % inhibition of control values
Method: as §1, §2, §3, §4, §5, §6

CaMK4 (h) = CaMK4 (h) (Homo sapiens (Human), UniProt Q16566); experiment: Kinase selectivity panel: CaMK4 (h); assay type: biochemical; conditions: 10 μM in duplicate, read-out: % inhibition of control values
Method: as §1, §2, §3, §4, §5, §6

HGK (h) (MAP4K4) = HGK (h) (MAP4K4) (Homo sapiens (Human), UniProt O95819); experiment: Kinase selectivity panel: HGK (h) (MAP4K4); assay type: biochemical; conditions: 10 μM in duplicate, read-out: % inhibition of control values
Method: as §1, §2, §3, §4, §5, §6

PKCalpha (h) = PKCalpha (h) (Homo sapiens (Human), UniProt P17252); experiment: Kinase selectivity panel: PKCalpha (h); assay type: biochemical; conditions: 10 μM in duplicate, read-out: % inhibition of control values
Method: as §1, §2, §3, §4, §5, §6

Ret kinase (h) = Ret kinase (h) (Homo sapiens (Human), UniProt P07949); experiment: Kinase selectivity panel: Ret kinase (h); assay type: biochemical; conditions: 10 μM in duplicate, read-out: % inhibition of control values
Method: as §1, §2, §3, §4, §5, §6

IRK (h) (InsR) = IRK (h) (InsR) (Homo sapiens (Human), UniProt P06213); experiment: Kinase selectivity panel: IRK (h) (InsR); assay type: biochemical; conditions: 10 μM in duplicate, read-out: % inhibition of control values
Method: as §1, §2, §3, §4, §5, §6

TRKA (h) = TRKA (h) (Homo sapiens (Human), UniProt P04629); experiment: Kinase selectivity panel: TRKA (h); assay type: biochemical; conditions: 10 μM in duplicate, read-out: % inhibition of control values
TRKA (h), sequence (P04629 33-796): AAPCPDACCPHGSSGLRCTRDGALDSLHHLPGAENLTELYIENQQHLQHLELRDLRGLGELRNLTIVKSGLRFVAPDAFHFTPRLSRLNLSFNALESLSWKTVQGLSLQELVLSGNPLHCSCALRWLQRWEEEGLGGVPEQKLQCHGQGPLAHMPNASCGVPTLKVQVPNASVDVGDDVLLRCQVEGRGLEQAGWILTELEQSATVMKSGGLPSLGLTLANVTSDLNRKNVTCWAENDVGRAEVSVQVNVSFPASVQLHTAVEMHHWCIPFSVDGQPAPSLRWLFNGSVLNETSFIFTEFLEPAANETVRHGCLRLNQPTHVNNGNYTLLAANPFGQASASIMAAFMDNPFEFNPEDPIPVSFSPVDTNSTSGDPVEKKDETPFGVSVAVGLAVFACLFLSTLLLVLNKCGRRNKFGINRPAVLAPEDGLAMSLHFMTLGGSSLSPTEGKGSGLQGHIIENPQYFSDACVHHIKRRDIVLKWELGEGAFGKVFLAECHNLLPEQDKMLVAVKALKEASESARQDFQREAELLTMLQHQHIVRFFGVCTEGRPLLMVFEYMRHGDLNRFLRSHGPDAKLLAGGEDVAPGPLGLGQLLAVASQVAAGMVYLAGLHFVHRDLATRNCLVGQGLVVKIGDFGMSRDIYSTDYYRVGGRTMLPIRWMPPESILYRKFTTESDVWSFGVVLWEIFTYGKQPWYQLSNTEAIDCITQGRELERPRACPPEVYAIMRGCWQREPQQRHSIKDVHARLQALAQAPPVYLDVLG
Method: as §1, §2, §3, §4, §5, §6

EphB4 kinase (h) = EphB4 kinase (h) (Homo sapiens (Human), UniProt P54760); experiment: Kinase selectivity panel: EphB4 kinase (h); assay type: biochemical; conditions: 10 μM in duplicate, read-out: % inhibition of control values
Method: as §1, §2, §3, §4, §5, §6

CDC2/CDK1 (h) (cycB) = CDC2/CDK1 (h) (cycB) (Homo sapiens (Human), UniProt P06493); experiment: Kinase selectivity panel: CDC2/CDK1 (h) (cycB); assay type: biochemical; conditions: 10 μM in duplicate, read-out: % inhibition of control values
Method: as §1, §2, §3, §4, §5, §6

NEK1 (h) = NEK1 (h) (Homo sapiens (Human), UniProt Q96PY6); experiment: Kinase selectivity panel: NEK1 (h); assay type: biochemical; conditions: 10 μM in duplicate, read-out: % inhibition of control values
Method: as §1, §2, §3, §4, §5, §6

DYRK1a (h) = DYRK1a (h) (Homo sapiens (Human), UniProt Q13627); experiment: Kinase selectivity panel: DYRK1a (h); assay type: biochemical; conditions: 10 μM in duplicate, read-out: % inhibition of control values
Method: as §1, §2, §3, §4, §5, §6

DAPK1 (h) = DAPK1 (h) (Homo sapiens (Human), UniProt P53355); experiment: Kinase selectivity panel: DAPK1 (h); assay type: biochemical; conditions: 10 μM in duplicate, read-out: % inhibition of control values
DAPK1 (h), sequence (P53355 whole entry): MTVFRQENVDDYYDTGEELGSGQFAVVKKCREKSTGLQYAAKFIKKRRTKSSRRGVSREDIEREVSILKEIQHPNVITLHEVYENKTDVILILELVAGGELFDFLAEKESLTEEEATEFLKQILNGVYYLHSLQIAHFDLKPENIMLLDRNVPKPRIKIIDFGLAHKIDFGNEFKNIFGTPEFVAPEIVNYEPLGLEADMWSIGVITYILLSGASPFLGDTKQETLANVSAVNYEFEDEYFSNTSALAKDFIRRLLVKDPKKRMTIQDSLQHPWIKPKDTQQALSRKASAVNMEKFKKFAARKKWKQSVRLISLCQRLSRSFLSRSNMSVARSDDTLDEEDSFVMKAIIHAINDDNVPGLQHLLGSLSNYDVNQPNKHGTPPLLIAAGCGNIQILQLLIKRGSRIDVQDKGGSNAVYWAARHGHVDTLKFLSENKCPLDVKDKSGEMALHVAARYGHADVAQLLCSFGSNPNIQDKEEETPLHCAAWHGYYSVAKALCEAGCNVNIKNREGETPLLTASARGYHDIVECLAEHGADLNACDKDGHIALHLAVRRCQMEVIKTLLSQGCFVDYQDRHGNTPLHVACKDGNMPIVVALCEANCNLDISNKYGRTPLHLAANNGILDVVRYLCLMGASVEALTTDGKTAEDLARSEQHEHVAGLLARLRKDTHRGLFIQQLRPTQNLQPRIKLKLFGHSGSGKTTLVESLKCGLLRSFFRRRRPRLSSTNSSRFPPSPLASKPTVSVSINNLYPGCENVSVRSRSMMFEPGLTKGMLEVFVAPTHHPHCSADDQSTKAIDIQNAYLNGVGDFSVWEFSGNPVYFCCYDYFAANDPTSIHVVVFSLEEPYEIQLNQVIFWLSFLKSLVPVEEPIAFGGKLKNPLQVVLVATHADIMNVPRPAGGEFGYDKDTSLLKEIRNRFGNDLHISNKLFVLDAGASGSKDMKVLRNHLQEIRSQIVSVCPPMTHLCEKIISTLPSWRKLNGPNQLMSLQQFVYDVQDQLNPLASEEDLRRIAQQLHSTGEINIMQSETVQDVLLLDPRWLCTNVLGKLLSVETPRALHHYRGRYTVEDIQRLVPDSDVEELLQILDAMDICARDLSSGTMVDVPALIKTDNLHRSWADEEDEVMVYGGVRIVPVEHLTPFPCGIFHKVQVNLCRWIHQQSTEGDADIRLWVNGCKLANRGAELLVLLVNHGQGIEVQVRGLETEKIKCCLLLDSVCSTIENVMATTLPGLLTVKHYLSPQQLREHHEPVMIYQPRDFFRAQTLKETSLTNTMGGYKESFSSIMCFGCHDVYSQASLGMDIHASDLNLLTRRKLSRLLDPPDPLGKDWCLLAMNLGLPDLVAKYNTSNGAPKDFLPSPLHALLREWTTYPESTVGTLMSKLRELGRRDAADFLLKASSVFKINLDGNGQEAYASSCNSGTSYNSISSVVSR
Method: as §1, §2, §3, §4, §5, §6

COCCN1CCC(CNC(=O)c2n[nH]c3ccc(OC)cc23)CC1 [Compound 2, 5-methoxy-N-{[1-(2-methoxyethyl)-piperidin-4-yl]methyl}-1H-indazole-3-carboxamide]
inhibition at 10 µM (IKKalpha (h)): 0%
inhibition at 10 µM (Abl kinase (h)): 0%
inhibition at 10 µM (p38gamma kinase (h)): 0%
inhibition at 10 µM (PDK1 (h)): 6%
inhibition at 10 µM (CDK2 (h) (cycA)): 11%
inhibition at 10 µM (mTOR kinase (h) (FRAP1)): 2%
inhibition at 10 µM (Pim1 kinase (h)): 2%
inhibition at 10 µM (MEK1/MAP2K1 (h)): 9%
inhibition at 10 µM (FGFR1 kinase (h)): 0%
% inhibition of control values (AMPKalpha): 19%
inhibition at 10 µM (PKA (h)): 2%
inhibition at 10 µM (PAK1 (h)): 0%
inhibition at 10 µM (MNK2 (h)): 0%
inhibition at 10 µM (GRK3/BARK2 (h) (ADRBK2)): 0%
inhibition at 10 µM (smMLCK (h) (MYLK)): 8%
inhibition at 10 µM (AurB/Aur1 kinase (h)): 6%
inhibition at 10 µM (IRAK4 (h)): 8%
inhibition at 10 µM (AurA/Aur2 kinase (h)): 1%
inhibition at 10 µM (MSK1 (h)): 16%
inhibition at 10 µM (Akt1/PKBalpha (h)): 4%
inhibition at 10 µM (JAK2 (h)): 0%
inhibition at 10 µM (PKCgamma (h)): 0%
inhibition at 10 µM (p38alpha kinase (h)): 0%
inhibition at 10 µM (CaMK4 (h)): 0%
inhibition at 10 µM (HGK (h) (MAP4K4)): 23%
inhibition at 10 µM (PKCalpha (h)): 0%
inhibition at 10 µM (Ret kinase (h)): 0%
inhibition at 10 µM (IRK (h) (InsR)): 0%
inhibition at 10 µM (TRKA (h)): 0%
inhibition at 10 µM (EphB4 kinase (h)): 17%
inhibition at 10 µM (CDC2/CDK1 (h) (cycB)): 0%
inhibition at 10 µM (NEK1 (h)): 0%
inhibition at 10 µM (DYRK1a (h)): 56%
inhibition at 10 µM (DAPK1 (h)): 12%
